Data set [1] is described as follows: Metal chelating activity of the compound assessed as Fe2+-compound complex formation incubated for 10 mins in presence of ferrozine by UV-visible spectrophotometry. Particulars: read-out: IC50.
The nature of data set [2]: Oral bioavailability in Sprague-Dawley rat at 20 mg/kg measured upto 24 hrs by LC-MS/MS analysis. Type of data set: ADME, organism-based. The following applies: in vivo.
In data set [3] the test system is PC-12. As to the kind of experiment: Cytoprotective activity against H2O2-induced cell death in rat PC12 cells assessed as increase in cell viability at 10 uM incubated for 1 hr followed by H2O2 stimulation and measured after 5 hrs in presence of LY294002 by MTT assay. Particulars: time 6.0 hrs. Type of data set: functional, cell-based. For orientation: Formazan colour is commonly taken as a measure of viable cells.

Data set [4] in a line: Half life in Sprague-Dawley rat at 2 mg/kg, iv measured upto 24 hrs by LC-MS/MS analysis. Type of data set: ADME, organism-based. The following applies: in vivo.
Data set [5] can be described thus: Toxicity in […] assessed as body weight at 400 mg/kg, ip measured on day 5 (reference value: 24.4 to 28.4 g). Type of data set: organism-based. Particulars: in vivo, 120 h, time 5 day.
The subject of data set [6] is PC-12. As to the kind of experiment: Reversal of LY294002-induced Nrf2 inhibition in rat PC-12 cells at 1.25 to 5 uM incubated for 1 hr followed by LY294002 stimulation and measured after 24 hrs by Western blot analysis. Type of data set: functional, cell-based. Particulars: dose 1.25-5 µM, time 25.0 hrs.
Data set [7] concerns the target T1, Nuclear factor erythroid 2-related factor 2 (Rattus norvegicus) (UniProt O54968).
T1 sequence (whole entry): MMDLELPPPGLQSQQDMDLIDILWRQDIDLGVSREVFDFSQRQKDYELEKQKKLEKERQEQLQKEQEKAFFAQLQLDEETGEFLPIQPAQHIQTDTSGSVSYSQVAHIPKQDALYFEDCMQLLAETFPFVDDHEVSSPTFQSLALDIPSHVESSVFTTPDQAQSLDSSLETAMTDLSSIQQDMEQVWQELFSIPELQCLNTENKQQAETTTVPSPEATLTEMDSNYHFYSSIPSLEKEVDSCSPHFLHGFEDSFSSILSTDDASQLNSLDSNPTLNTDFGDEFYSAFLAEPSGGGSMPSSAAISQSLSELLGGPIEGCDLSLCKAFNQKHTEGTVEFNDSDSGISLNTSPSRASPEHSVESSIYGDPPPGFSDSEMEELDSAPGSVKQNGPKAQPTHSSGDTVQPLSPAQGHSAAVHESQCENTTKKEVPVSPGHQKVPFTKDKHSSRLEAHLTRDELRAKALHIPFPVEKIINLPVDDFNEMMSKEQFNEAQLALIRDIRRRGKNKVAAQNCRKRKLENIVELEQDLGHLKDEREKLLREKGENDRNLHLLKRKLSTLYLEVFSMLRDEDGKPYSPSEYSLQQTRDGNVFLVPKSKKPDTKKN
As to the kind of experiment: Induction of Nrf2 nuclear translocation in rat PC-12 cells assessed as H2O2-induced GSH level incubated for 1 hr followed by H2O2 stimulation and measured after 5 hrs. Type of data set: cell-based. The following applies: dose 2.5-10 µM, time 6.0 hrs.

The nature of data set [8]: Cmax in Sprague-Dawley rat at 20 mg/kg, po measured upto 24 hrs by LC-MS/MS analysis. Type of data set: ADME, organism-based. More on the design: route oral, dose 20 mg/kg, time <=24. Particulars: in vivo.
For data set [9], the target named is T1, Nuclear factor erythroid 2-related factor 2 (Rattus norvegicus). As to the kind of experiment: Induction of Nrf2 nuclear translocation in rat PC-12 cells assessed as SNP-induced GSH level at 10 uM incubated for 1 hr followed by SNP stimulation and measured after 24 hrs (reference value: 75.78 +/- 1.74 nM/mg). It is filed as cell-based. Particulars: time 25.0 hrs.

For data set [10] the target is unchanged. As to the kind of experiment: Induction of Nrf2 nuclear translocation in rat PC-12 cells assessed as increase in nuclear Nrf2 level at 1.25 to 5 uM incubated for 24 hrs by Western blot analysis. Type of data set: cell-based. The following applies: dose 1.25-5 µM. On the technique in general: In western blotting, separated proteins are transferred to a membrane and probed.

Data set [11] relates to PC-12. As to the kind of experiment: Cytoprotective activity against SNP-induced cell death in rat PC-12 cells assessed as increase in cell viability incubated for 1 hr followed by SNP stimulation and measured after 24 hrs by LDH assay. Particulars: time 25.0 hrs. It is filed as functional, cell-based.
The nature of data set [12]: Toxicity in […] assessed as behavior changes at 400 mg/kg, ip observed after 12 hrs. The following applies: in vivo. Type of data set: organism-based.
The nature of data set [13]: Toxicity in […] assessed as body weight at 400 mg/kg, ip measured on day 3 (reference value: 24.4 to 28.4 g). Type of data set: organism-based. The following applies: in vivo, 72 h, time 3 day.
In data set [14] the target is T1, Nuclear factor erythroid 2-related factor 2 (Rattus norvegicus). As to the kind of experiment: Induction of Nrf2 nuclear translocation in rat PC-12 cells assessed as H2O2-induced GSH-px level at 5 uM incubated for 1 hr followed by H2O2 stimulation and measured after 5 hrs (reference value: 45.92 +/- 3.64 mU/mg). Type of data set: cell-based. The following applies: time 6.0 hrs.

Data set [15] is described as follows: Clearance in Sprague-Dawley rat at 20 mg/kg, po measured upto 24 hrs by LC-MS/MS analysis. Type of data set: ADME, organism-based. Particulars: in vivo.
Data set [16] concerns the target T1, Nuclear factor erythroid 2-related factor 2 (Rattus norvegicus). As to the kind of experiment: Induction of Nrf2 nuclear translocation in rat PC-12 cells assessed as H2O2-induced GSH level at 2.5 uM incubated for 1 hr followed by H2O2 stimulation and measured after 5 hrs (reference value: 65.52 +/- 1.44 nM/mg). Type of data set: cell-based. The following applies: time 6.0 hrs.

For data set [17], the system named is PC-12. Briefly: Inhibition of SNP-induced apoptosis in rat PC-12 cells assessed as effect on cell morphology incubated for 1 hr followed by SNP stimulation and measured after 24 hrs by Hoechst 33258 staining based fluorescence microscopy. It is filed as functional. Particulars: dose 2.5-10 µM, time 25.0 hrs.
Data set [18] deals with PC-12. Briefly: Cytoprotective activity against SNP-induced cell death in rat PC12 cells assessed as increase in cell viability at 10 uM incubated for 1 hr followed by SNP stimulation and measured after 24 hrs in presence of LY294002 by MTT assay. It is filed as functional, cell-based. Particulars: time 25.0 hrs.
Data set [19] addresses T1, Nuclear factor erythroid 2-related factor 2 (Rattus norvegicus). As to the kind of experiment: Induction of Nrf2 nuclear translocation in rat PC-12 cells assessed as SNP-induced GSH-px level at 5 uM incubated for 1 hr followed by SNP stimulation and measured after 24 hrs (reference value: 37.70 +/- 2.88 mU/mg). Type of data set: cell-based. The following applies: time 25.0 hrs.

For data set [20] the target is unchanged. Briefly: Induction of Nrf2 nuclear translocation in rat PC-12 cells assessed as H2O2-induced SOD level at 2.5 uM incubated for 1 hr followed by H2O2 stimulation and measured after 5 hrs (reference value: 29.69 +/- 1.65 U/mg). It is filed as cell-based. The following applies: time 6.0 hrs.
The target is the same in data set [21]. Briefly: Induction of Nrf2 nuclear translocation in rat PC-12 cells assessed as SNP-induced GSH-px level at 10 uM incubated for 1 hr followed by SNP stimulation and measured after 24 hrs (reference value: 37.70 +/- 2.88 mU/mg). It is filed as cell-based. Particulars: time 25.0 hrs.
Data set [22] is described as follows: MRT in Sprague-Dawley rat at 2 mg/kg, iv measured upto 24 hrs by LC-MS/MS analysis. Particulars: in vivo. It is filed as ADME, organism-based.

Calls of active or inactive are those of the source. No cut-off for these calls is given here.

Consider `COc1ccc(-c2nc(-c3ccccc3O)n(-c3ccc(S(N)(=O)=O)cc3)n2)c(O)c1`, for which the IC50 in [1] is 36.3 µM. In data set [2], this compound returned a bioavailability of 60.8%. In addition, the result with PC-12 [3] and in the data set on PC-12 [18] was inactive. Besides, the half-life in [4] was 5.11 h. Also, the Activity in data set [5] is 24.9 g; in data set [7] it was “Dose-dependent effect”; in [9], 89.2 nM/mg; in the data set with PC-12 [11], “Dose-dependent effect”; in data set [12] it was “Non-Toxic”; in data set [13], 24.5 g. In addition, the Activity was 65.2 mU/mg in data set [14]; 70.4 nM/mg in data set [16]; 44.4 mU/mg in [19]; 36.3 U/mg in [20]; 52.8 mU/mg in data set [21]. In addition, the result (with PC-12 [6]; in data set [10]) was Active. Also, the peak level in [8] (Cmax) was 2.03 µg/mL. Besides, the CL/F in data set [15] is 1.4 L/h/kg. Besides, in the data set on PC-12 [17], the inhibition result was “Dose-dependent effect”. This compound had an MRT in data set [22] of 2.37 h.

What is called IC50 is the concentration at which inhibition is half-maximal. As usually defined, the bioavailability is dose-corrected exposure relative to a reference, in per cent. As usually defined, the half-life is the time in which the quantity being followed falls by half. As a reminder, the Cmax is the highest concentration seen after dosing. The CL/F is clearance divided by bioavailability, as obtained after extravascular dosing. Broadly, the MRT is the average time that molecules of a dose stay in the body.

The values above are taken from ChEMBL document CHEMBL4680194, “Synthesis and biological evaluation of 1,2,4-triazole derivatives as potential neuroprotectant against ischemic brain injury” (Eur J Med Chem, 2020).
